Values of other authors as cited in patent publication US20240400534A1, “CHEMICAL TOOLS FOR DRUG TARGET IDENTIFICATION AND CHARACTERIZATION” (Dana-Farber Cancer Institute, Inc., priority 2021, published 2024).

Target: USP7 (Homo sapiens, UniProt Q93009)
Conditions: selective covalent inhibitor of the DUB USP7

Chain of USP7 (Q93009 whole entry): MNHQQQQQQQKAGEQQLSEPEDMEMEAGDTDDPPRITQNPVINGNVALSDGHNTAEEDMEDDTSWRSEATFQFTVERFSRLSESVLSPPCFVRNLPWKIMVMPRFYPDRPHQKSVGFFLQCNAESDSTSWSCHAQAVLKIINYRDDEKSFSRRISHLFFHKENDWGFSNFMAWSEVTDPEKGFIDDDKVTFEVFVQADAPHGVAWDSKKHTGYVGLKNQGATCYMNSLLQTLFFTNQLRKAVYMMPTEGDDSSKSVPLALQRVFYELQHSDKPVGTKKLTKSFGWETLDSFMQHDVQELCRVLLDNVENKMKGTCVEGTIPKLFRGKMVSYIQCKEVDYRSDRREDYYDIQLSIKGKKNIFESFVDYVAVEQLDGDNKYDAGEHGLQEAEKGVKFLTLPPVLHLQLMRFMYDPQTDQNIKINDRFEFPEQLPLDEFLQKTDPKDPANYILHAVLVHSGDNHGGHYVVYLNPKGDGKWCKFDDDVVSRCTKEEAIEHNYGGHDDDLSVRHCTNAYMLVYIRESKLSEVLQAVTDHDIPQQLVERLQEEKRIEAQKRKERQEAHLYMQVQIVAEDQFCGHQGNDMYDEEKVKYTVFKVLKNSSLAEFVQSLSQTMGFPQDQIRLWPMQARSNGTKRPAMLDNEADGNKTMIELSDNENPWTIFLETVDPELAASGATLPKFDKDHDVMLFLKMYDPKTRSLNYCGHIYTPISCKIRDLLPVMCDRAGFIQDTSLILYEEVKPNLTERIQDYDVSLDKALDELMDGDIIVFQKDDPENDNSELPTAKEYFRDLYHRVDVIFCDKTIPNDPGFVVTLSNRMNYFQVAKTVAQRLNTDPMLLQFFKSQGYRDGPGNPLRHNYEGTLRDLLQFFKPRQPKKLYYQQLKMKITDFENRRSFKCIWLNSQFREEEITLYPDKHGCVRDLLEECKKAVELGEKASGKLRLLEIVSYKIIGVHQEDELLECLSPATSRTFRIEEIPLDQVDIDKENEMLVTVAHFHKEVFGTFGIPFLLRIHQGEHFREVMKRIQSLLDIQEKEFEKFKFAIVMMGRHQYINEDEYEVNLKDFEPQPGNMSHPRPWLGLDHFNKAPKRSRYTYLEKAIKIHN

Compound: CN1CCN(CCC(=O)Nc2ccc3c(=O)n(CC4(O)CCN(C(=O)[C@@H](CCCNC(=O)c5ccc6c(Cl)c7c(nc6c5)CCCC7)Cc5ccccc5)CC4)cnc3c2)CC1 [XL177A]
- IC50: 0.3 nM
